From patent US20100130477A1, “Spirocyclobutyl Piperidine Derivatives” (ASTRAZENECA AB, priority 2008, published 2010)

Target: T1, human Histamine H3 receptor (hH3R) (Homo sapiens, UniProt Q9Y5N1)
T1 construct: expressed in transfected cells; host or cells: CHO cells (Chinese Hamster Ovary); membranes
Assay: GTPγS Binding Assay (antagonist activity, [35S]GTPγS, (R)-α-methyl histamine 30 nM)
Assay type: biochemical
Conditions: membranes from CHO cells expressing hH3R, 90 minutes at room temperature
Protocol: Guanosine 5′-O-(3-[^35S]thio)triphosphate [GTPγS] Binding Assay
A GTPγS binding assay can be used to investigate antagonist properties of compounds in CHO cells (Chinese Hamster Ovary) transfected with human Histamine H3 receptor (hH3R). Membranes from CHO cells expressing hH3R (10 μg/well) are diluted in GTPγS assay buffer (20 mM Hepes, 10 mM MgCl2, 100 mM NaCl, pH 7.4) and preincubated with saponine (3 μg/ml), GDP (10 μM) and PVT-WGA SPA beads (125 μg/well) (Amersham) for 30 minutes. To determine antagonist activity, (R)-α-methyl histamine (30 nM) is added in 96 well SPA plate with [^35S]GTPγS (0.2 nM) and various concentration of H3R antagonists. The GTPγS binding assay is started with addition of the mixture membrane/saponine/GDP and incubated for 90 minutes at room temperature. The amount of bound [^35S]GTPγS is determined by using the MicroBeta Trilux counter (PerkinElmer). The percentage of [^35S]GTPγS bound in each sample is calculated as a percentage of that bound control sample incubated in absence of H3 antagonist. Duplicate determinations are obtained for each concentration, and the data are analyzed using ExcelFit4 to obtain the IC50.

T1 sequence (Q9Y5N1 whole entry): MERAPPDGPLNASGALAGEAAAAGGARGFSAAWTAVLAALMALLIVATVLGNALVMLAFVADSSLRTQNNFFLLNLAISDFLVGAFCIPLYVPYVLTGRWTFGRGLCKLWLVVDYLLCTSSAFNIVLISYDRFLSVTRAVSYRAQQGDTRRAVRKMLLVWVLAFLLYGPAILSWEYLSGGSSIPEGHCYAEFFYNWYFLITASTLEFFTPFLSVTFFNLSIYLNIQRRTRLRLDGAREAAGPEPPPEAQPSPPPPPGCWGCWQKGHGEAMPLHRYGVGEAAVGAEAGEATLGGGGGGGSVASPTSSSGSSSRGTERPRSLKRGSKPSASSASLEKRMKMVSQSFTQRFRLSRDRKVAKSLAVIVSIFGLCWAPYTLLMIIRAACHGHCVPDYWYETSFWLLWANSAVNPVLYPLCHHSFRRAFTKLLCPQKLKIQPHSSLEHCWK

Row | IC50 [nM] | SMILES
1 | 269 | CC(C)N1CCCN(C(=O)C2CC3(CCN(C(=O)N(C)C)CC3)C2)CC1 [Example 56, 2-(4-isopropyl-1,4-diazepane-1-carbonyl)-N,N-dimethyl-7-azaspiro[3.5]nonane-7-carboxamide]
2 | 8.27 | O=C(c1cccnc1)N1CCC2(CC1)CC(C(=O)N1CCCN(C3CCC3)CC1)C2 [Example 47, (4-cyclobutyl-1,4-diazepan-1-yl)(7-nicotinoyl-7-azaspiro[3.5]nonan-2-yl)methanone]
